Laboratory results reported in ChEMBL document CHEMBL5608163, “Structure modification of anoplin for fighting resistant bacteria” (Eur J Med Chem, 2024).
Converted amounts (≈) assume the structure as drawn. Blank lines part the entries; values can stand above or below the compound they belong to. Square brackets hold non-standard residues; d marks the D form. Peptide text beside a SMILES is read from it. hIle = CC[C@H](C)C[C@H](N)C(=O)O; Cha = N[C@@H](CC1CCCCC1)C(=O)O

Assays:
Staphylococcus aureus [1] = assay: Antibacterial activity against Staphylococcus aureus ATCC 25923 assessed as reduction in bacterial growth incubated for 18 to 24 hrs by broth microdilution method; type: functional; conditions: time 18-24 hrs
Escherichia coli [2] = assay: Antibacterial activity against Escherichia coli ATCC 25922 assessed as reduction in bacterial growth by broth microdilution method; type: functional
[3] = Hemolytic activity in human RBC; type: toxicity, cell-based, Erythrocyte; conditions: red blood cells
Pseudomonas aeruginosa [4] = assay: Antibacterial activity against Pseudomonas aeruginosa ATCC 27853 assessed as reduction in bacterial growth incubated for 18 to 20 hrs by Mueller Hinton broth dilution method; type: functional; conditions: time 18-20 hrs
Escherichia coli [5] = assay: Antibacterial activity against Escherichia coli ATCC 25922 assessed as reduction in bacterial growth incubated for 18 to 20 hrs by Mueller Hinton broth dilution method; type: functional; conditions: time 18-20 hrs
Erythrocyte = assay: Hemolytic activity in mouse Red blood cells incubated for 1 hr by microplate reader assay; type: toxicity, cell-based; conditions: erythrocyte, 1 h
Staphylococcus aureus [6] = assay: Antibacterial activity against Staphylococcus aureus ATCC 25923 assessed as reduction in bacterial growth incubated for 18 to 20 hrs by Mueller Hinton broth dilution method; type: functional; conditions: time 18-20 hrs
Bacillus subtilis = assay: Antibacterial activity against Bacillus subtilis ATCC 23857 assessed as reduction in bacterial growth incubated for 18 to 20 hrs by Mueller Hinton broth dilution method; type: functional; conditions: time 18-20 hrs
Pseudomonas aeruginosa [7] = assay: Antibacterial activity against Pseudomonas aeruginosa ATCC 27853 assessed as reduction in microbial growth incubated for 16 to 20 hrs by CLSI protocol based Muller Hinton broth assay; type: functional; conditions: time 16-20 hrs
Enterococcus faecium = assay: Antibacterial activity against vancomycin resistant Enterococcus faecium ATCC 700221 assessed as inhibition of bacterial growth incubated for 48 hrs by CLSI-based broth microdilution assay; type: functional
[8] = Hemolytic activity in human RBC assessed as hemolysis measured after 24 hrs; type: toxicity, cell-based, Erythrocyte; conditions: red blood cells
Escherichia coli [9] = assay: Antibacterial activity against Escherichia coli ATCC 25922 assessed as reduction in microbial growth incubated for 16 to 20 hrs by CLSI protocol based Muller Hinton broth assay; type: functional; conditions: time 16-20 hrs
Staphylococcus aureus [10] = assay: Antibacterial activity against methicillin-resistant Staphylococcus aureus ATCC 33591 assessed as reduction in bacterial growth incubated for 18 hrs by agar dilution method; type: functional

SMILES: CC[C@H](C)[C@H](NC(=O)[C@H](CCCNC(=N)N)NC(=O)[C@H](CCCCN)NC(=O)[C@H](CC(C)C)NC(=O)[C@H](CC(C)C)NC(=O)CN)C(=O)N[C@@H](C)C(=O)N[C@H](C(=O)N[C@@H](CC(C)C)C(=O)N[C@@H](CC(C)C)C(N)=O)[C@@H](C)O (H-GLLKRIATLL-NH2)
- MIC (Staphylococcus aureus [1]): 10.1 µM (≈ 11.1 µg/mL)
- MIC (Escherichia coli [2]): 10.1 µM (≈ 11.1 µg/mL)
- HC50 [3]: 121 µM

SMILES: CC(C)C[C@@H](NC(=O)[C@@H](CC(C)C)NC(=O)[C@@H](CCCCN)NC(=O)[C@@H](CCCCN)NC(=O)[C@@H](Cc1c[nH]c2ccccc12)NC(=O)[C@@H](CCCNC(=N)N)NC(=O)[C@@H](CCCCN)NC(=O)[C@@H](CC(C)C)NC(=O)[C@@H](CC(C)C)NC(=O)[C@H](N)Cc1c[nH]c2ccccc12)C(N)=O
- MIC (Pseudomonas aeruginosa [4]): 8 µM (≈ 11.1 µg/mL)
- MIC (Escherichia coli [5]): 8 µM (≈ 11.1 µg/mL)
- HC10 (Erythrocyte): > 200 µM
- MIC (Staphylococcus aureus [6]): 16 µM (≈ 22.1 µg/mL)
- MIC (Bacillus subtilis): 4 µM (≈ 5.53 µg/mL)

SMILES: CC[C@H](C)[C@H](NC(=O)[C@H](CCCNC(=N)N)NC(=O)[C@H](C)NC(=O)[C@H](CC(C)C)NC(=O)[C@H](CC(C)C)NC(=O)CN)C(=O)N[C@@H](CCCCN)C(=O)N[C@H](C(=O)N[C@@H](CC(C)C)C(=O)N[C@@H](CC(C)C)C(N)=O)[C@@H](C)O (H-GLLARIKTLL-NH2)
- MIC (Staphylococcus aureus [1]): 25.6 µM (≈ 28.1 µg/mL)
- MIC (Escherichia coli [2]): 14.6 µM (≈ 16 µg/mL)

SMILES: CC(C)C[C@@H](NC(=O)[C@@H](CC(C)C)NC(=O)[C@@H](CCCCN)NC(=O)[C@@H](CCCCN)NC(=O)[C@@H](Cc1c[nH]c2ccccc12)NC(=O)[C@@H](Cc1c[nH]c2ccccc12)NC(=O)[C@@H](CCCCN)NC(=O)[C@@H](CC(C)C)NC(=O)[C@@H](CC(C)C)NC(=O)[C@H](N)CCCCN)C(N)=O (H-[dK][dL][dL][dK][dW][dW][dK][dK][dL][dL]-NH2)
- MIC (Pseudomonas aeruginosa [4]): 8 µM (≈ 10.8 µg/mL)
- MIC (Escherichia coli [5]): 64 µM (≈ 86.7 µg/mL)
- HC10 (Erythrocyte): > 200 µM
- MIC (Staphylococcus aureus [6]): 8 µM (≈ 10.8 µg/mL)
- MIC (Bacillus subtilis): 4 µM (≈ 5.42 µg/mL)

SMILES: CC[C@H](C)[C@H](NC(=O)[C@H](CCCNC(=N)N)NC(=O)[C@@H](CCCCN)NC(=O)[C@H](CC(C)C)NC(=O)[C@H](CC(C)C)NC(=O)CN)C(=O)N[C@@H](CCCCN)C(=O)N[C@@H](C(=O)N[C@@H](CC(C)C)C(=O)N[C@@H](CC(C)C)C(N)=O)[C@H](C)O
- HC10 (Erythrocyte): > 300 µM

SMILES: CC[C@H](C)C[C@H](NC(=O)[C@H](CCCNC(=N)N)NC(=O)[C@H](CCCCN)NC(=O)[C@H](CC(C)C)NC(=O)[C@H](CC1CCCCC1)NC(=O)CN)C(=O)N[C@@H](CCCCN)C(=O)N[C@H](C(=O)N[C@@H](CC(C)C)C(=O)N[C@@H](CC(C)C)C(N)=O)[C@@H](C)O (H-G[Cha]LKR[hIle]KTLL-NH2)
- MIC (Pseudomonas aeruginosa [7]): 28.4 µM
- MIC (Enterococcus faecium): 15.8 µM (≈ 19.1 µg/mL)
- HC50 at 24 h [8]: 195 µM
- MIC (Escherichia coli [9]): 25 µM
- MIC (Staphylococcus aureus [10]): 85.3 µM (≈ 103 µg/mL)

The next lines start with the values.

- MIC (Staphylococcus aureus [1]): 27.9 µM (≈ 31 µg/mL)
- MIC (Escherichia coli [2]): 44.1 µM (≈ 49 µg/mL)
SMILES: CC[C@H](C)[C@H](NC(=O)[C@H](CCCNC(=N)N)NC(=O)[C@H](CCCCN)NC(=O)[C@H](CC(C)C)NC(=O)[C@H](CC(C)C)NC(=O)CN)C(=O)N[C@@H](CCCCN)C(=O)N[C@H](C(=O)N[C@@H](C)C(=O)N[C@@H](CC(C)C)C(N)=O)[C@@H](C)O (H-GLLKRIKTAL-NH2)

- MIC (Staphylococcus aureus [1]): > 36.9 µM
- MIC (Escherichia coli [2]): > 36.9 µM
SMILES: CC(C)C[C@H](NC(=O)[C@H](CC(C)C)NC(=O)[C@@H](NC(=O)[C@H](CCCCN)NC(=O)[C@H](C)NC(=O)[C@H](CCCNC(=N)N)NC(=O)[C@H](CCCCN)NC(=O)[C@H](CC(C)C)NC(=O)[C@H](CC(C)C)NC(=O)CN)[C@@H](C)O)C(N)=O (H-GLLKRAKTLL-NH2)

- MIC (Staphylococcus aureus [1]): > 34.2 µM
- MIC (Escherichia coli [2]): > 34.2 µM
SMILES: CC[C@H](C)[C@H](NC(=O)[C@H](CCCNC(=N)N)NC(=O)[C@H](CCCCN)NC(=O)[C@H](C)NC(=O)[C@H](CC(C)C)NC(=O)CN)C(=O)N[C@@H](CCCCN)C(=O)N[C@H](C(=O)N[C@@H](CC(C)C)C(=O)N[C@@H](CC(C)C)C(N)=O)[C@@H](C)O (H-GLAKRIKTLL-NH2)
